Values of other authors in article PMC9298070, “Lack of a Clinically Meaningful Drug Interaction Between the HIV‐1 Antiretroviral Agents Islatravir, Dolutegravir, and Tenofovir Disoproxil Fumarate” (Clinical Pharmacology in Drug Development, 2021).

Test system: drug transporters, pumps, transfer proteins, extrusion proteins, or resistance proteins
Conditions: cited from earlier work

In the case of `C#C[C@]1(CO)O[C@@H](n2cnc3c(N)nc(F)nc32)C[C@@H]1O` [Islatravir, 4′‐Ethynyl‐2‐fluoro‐2′‐deoxyadenosine], the “interference with drug transporters, pumps, transfer proteins, extrusion proteins, or resistance proteins” value is listed as “not found to interfere”.
